Measurements published in patent US4734418A, “Quinazoline compounds and antihypertensives” (priority 1984, dated 1988).
Where two headings read alike, the source gives them in different places.

System: Spontaneously Hypertensive Rats
Assay: Test 1: antihypertensive effects (systolic tail artery blood pressure) and heart rate in spontaneously hypertensive rats, oral
Assay type: in vivo, rat (male, SHR)
Settings: SHR; for change in vivo at 1 mg/kg / change in vivo at 10 mg/kg: Rattus norvegicus; for Change (%) in heart rate: maximum value
Description: The antihypertensive effects of the certain compounds of this invention were studied in the following manner.
Among male, spontaneously hypertensive rats (SHRs) of 20 weeks of age or older and 350-430 g heavy all of which had developed hypertension, those having systolic blood pressures of 180 mmHg or higher were used in groups, each of which was constituted of 3-4 of the rats. […] Besides, heart rates were also measured simultaneously. The compounds were each dissolved or suspended in a 0.5% methylcellulose solution and then administered orally.
*All administered orally at a dosage of 1 mg/Kg except for the compounds
**Each percent change in heart rate is indicated by the corresponding

[1] = oral 1 mg/Kg, 1 hour, read-out: Antihypertensive effects, change (%) in blood pressure, 1 hour later
[2] = oral 1 mg/Kg, 3 hours, read-out: Antihypertensive effects, change (%) in blood pressure, 3 hours later
[3] = oral 1 mg/Kg, 6 hours, read-out: Antihypertensive effects, change (%) in blood pressure, 6 hours later
[4] = oral 1 mg/Kg, 24 hours, read-out: Antihypertensive effects, change (%) in blood pressure, 24 hours later

Structure (SMILES)	change in vivo at 1 mg/kg [1]	change in vivo at 1 mg/kg [2]	change in vivo at 1 mg/kg [3]	change in vivo at 1 mg/kg [4]	Change (%) in heart rate (oral 1 mg/Kg)	change in vivo at 10 mg/kg (oral 10 mg/Kg, 1 hour, read-out: Antihypertensive effects, change (%) in blood pressure, 1 hour later)	change in vivo at 10 mg/kg (oral 10 mg/Kg, 3 hours, read-out: Antihypertensive effects, change (%) in blood pressure, 3 hours later)	change in vivo at 10 mg/kg (oral 10 mg/Kg, 6 hours, read-out: Antihypertensive effects, change (%) in blood pressure, 6 hours later)	change in vivo at 10 mg/kg (oral 10 mg/Kg, 24 hours, read-out: Antihypertensive effects, change (%) in blood pressure, 24 hours later)	Change (%) in heart rate (oral 10 mg/Kg)
COc1cc2nc(N3CCN(c4ncc(C(=O)N5CCCC5)c(C)n4)CC3)nc(N)c2cc1OC [Example 49]	-4.5%	-10.6%	-13.1%	-7.5%	+6.3%					
CCOC(=O)c1cnc(N2CCN(c3nc(N)c4cc(OC)c(OC)cc4n3)CC2)nc1O [Example 50]	-1.5%		-14.6%	-6.3%	+2.9%					
COc1cc2nc(N3CCN(c4ncc(C#N)c(O)n4)CC3)nc(N)c2cc1OC [Example 51]	8.6%	0%	-4.1%	-2.5%	+3.0%					
CCN(CC)C(=O)c1cnc(N2CCN(c3nc(N)c4cc(OC)c(OC)cc4n3)CC2)nc1OC [Example 52]	-8%	-13%	-19.5%	-3%	+3.6%					
CCN(CC)C(=O)c1cnc(N2CCN(c3nc(N)c4cc(OC)c(OC)cc4n3)CC2)nc1SC [Example 53]	-27.9%	-31.3%	-36.1%	-12%	+25.7%					
CCOC(=O)c1cnc(N2CCN(c3nc(N)c4cc(OC)c(OC)cc4n3)CC2)nc1N [Example 54]	-4.3%	-11.4%	-16.7%	-4.8%	+5.2%					
CCOC(=O)c1cnc(N2CCN(c3nc(N)c4cc(OC)c(OC)cc4n3)CC2)nc1NC [Example 55]	-6.5%	-21.9%	-29.9%	-7.5%	+7.0%					
CCOC(=O)c1cnc(N2CCN(c3nc(N)c4cc(OC)c(OC)cc4n3)CC2)nc1N(C)C [Example 56]	-21.4%	-22.4%	-22.9%	-4.5%	+13.5%					
CCNc1nc(N2CCN(c3nc(N)c4cc(OC)c(OC)cc4n3)CC2)ncc1C(=O)OCC [Example 57]	-10.4%	-18.9%	-27.9%	-9%	+4.3%					
CCOC(=O)c1cnc(N2CCN(c3nc(N)c4cc(OC)c(OC)cc4n3)CC2)nc1N(CC)CC [Example 58]	-7.4%	-17.6%	-22.5%	-9.8%	+9.8%					
CCOC(=O)c1cnc(N2CCN(c3nc(N)c4cc(OC)c(OC)cc4n3)CC2)nc1NC(C)C [Example 59]	-10.1%	-23.9%	-30.6%	-12.4%	+5.7%					
CCOC(=O)c1cnc(N2CCN(c3nc(N)c4cc(OC)c(OC)cc4n3)CC2)nc1NC(C)=O [Example 60]	-1.6%	-5.2%	-8.8%	-1%	+6.0%					
CCNc1nc(N2CCN(c3nc(N)c4cc(OC)c(OC)cc4n3)CC2)ncc1C(=O)OC(C)C [Example 61]	-2.4%	-22%	-28.2%	-12%	+12.4%					
CCNC(=O)Cc1cnc(N2CCN(c3nc(N)c4cc(OC)c(OC)cc4n3)CC2)nc1NCC [Example 63]	3.1%	-4.7%	-9%	-6.6%	+6.8%					
CCNC(=O)c1cnc(N2CCN(c3nc(N)c4cc(OC)c(OC)cc4n3)CC2)nc1N [Example 64]	-1.4%	-9.6%	-13.9%	-1.9%	+9.9%					
CCN(CC)C(=O)c1cnc(N2CCN(c3nc(N)c4cc(OC)c(OC)cc4n3)CC2)nc1N [Example 65]						-4.9%	-18.4%	-21.4%	-6.3%	+8.9%
CCNc1nc(N2CCN(c3nc(N)c4cc(OC)c(OC)cc4n3)CC2)ncc1C(=O)N(CC)CC [Example 67]	-21.4%	-28.6%	-38.4%	-16.7%	+7.4%					
CNC(=O)c1cnc(N2CCN(c3nc(N)c4cc(OC)c(OC)cc4n3)CC2)nc1NC [Example 68]	1.4%	-19.6%	-28.2%	-11.5%	+5.2%					
CNc1nc(N2CCN(c3nc(N)c4cc(OC)c(OC)cc4n3)CC2)ncc1C(=O)N(C)C [Example 69]	-12.9%	-22.7%	-24.7%	-4.6%	+7.4%					
COc1cc2cnc(N3CCN(c4nc(N)c5cc(OC)c(OC)cc5n4)CC3)nc2cc1OC [Example 71]	0.5%	-13.4%	-19.1%	-9.6%	+15.9%					
COc1cc2nc(N3CCN(c4nc(N)c5cc(OC)c(OC)cc5n4)CC3)nc(N)c2cc1OC [Example 72]	2.9%	-2%	-2.5%	-2.9%	+8.6%					
COc1cc2nc(N3CCN(c4nc(N(C)C)c5cc(OC)c(OC)cc5n4)CC3)nc(N)c2cc1OC [Example 73]	-0.5%	0%	-7%	-8%	+4.3%					
CCOc1nccc2nc(N3CCN(c4nc(N)c5cc(OC)c(OC)cc5n4)CC3)ncc12 [Example 74]	-0.5%	-14.1%	-23.3%	-12.1%	+9.0%					
COc1cc2nc(N3CCN(c4nc(SC)c5c6c(sc5n4)CCCC6C)CC3)nc(N)c2cc1OC (stereo not drawn) [Example 75]	12.2%	0.5%	-7.8%	-3.9%	+8.2%					
COc1cc2nc(N3CCN(c4ncc5c(n4)N(C)CCN(C)C5=O)CC3)nc(N)c2cc1OC [Example 76]	0%	-3.8%	-7.2%	-9.6%	+2.9%					
CCN(CC)C(=O)c1cnc(N2CCN(c3nc(N)c4cc(OC)c(OC)cc4n3)CC2)nc1NC [Example 77]	-31%	-32.9%	-36.2%	-13.8%	+25.1%					
